Values joined by “and” are separate entries in the source; they are usually repeats but may differ in a detail not shown here. Equal values may be shown once. Read-outs that look alike come from different tables or passages of the source.
What was measured:
Male ICR mice = assay: Mice tail suspension test; assay type: in vivo
Source text: The following method is used for testing the antidepression effect of the compound of the present application. ICR mice or SD rats, gavaged for two successive weeks, were subjected to mice swimming test, mice tail suspension test and rats swimming test. See below for details of the tests and results.
The animals, medicaments, calculation of dosages to the mice, preparation of drug solution and apparatus are the same as those in the mice swimming test.
The medicaments were correspondingly administered by gavage, once a day, to the animals in the groups for 14 successive days, with the amount of 0.2 ml per 10 g of body weight. The mice were subjected to tail suspension one hour later after the last oral administration. The suspension continued for 6 min.
The data was given as “average±standard deviation” (x±s). One-way analysis of variance (ANOVA) was used for data difference statistics. Differences among the groups were determined by P<0.05.

[1] = Pharmacokinetic test in rats, intravenous injection; assay type: in vivo, SD rats; settings: for Concentrations in Plasma of Rats after Intravenous Injection / concentration at 0.05 h / concentration at 0.133 h / concentration at 4 h / concentration at 6 h / concentration at 9 h / concentration at 12 h / concentration at 24 h / concentration at 0.25 h / concentration at 0.5 h / concentration at 1 h / concentration at 2 h / concentration at 3 h: 2 mg/kg iv; for concentration at 0.05 h / concentration at 0.133 h / concentration at 4 h / concentration at 6 h / concentration at 9 h / concentration at 12 h / concentration at 24 h / concentration at 0.25 h / concentration at 0.5 h / concentration at 1 h / concentration at 2 h / concentration at 3 h: intravenous; for concentration at 0.25 h / concentration at 0.5 h / concentration at 1 h / concentration at 2 h / concentration at 3 h: Sprague-Dawley
Description: The preferred compound of the present disclosure was assessed in rats for its pharmacokinetic profile.
SD rats, male and female, weighing 150 to 250 g
Mobile phase: 10 mM ammonium formate aqueous solution:methanol=15:85
The ionization source was electrospray ionization source. The detection mode was positive mode. Multiple reaction monitoring (MRM) was used as the scanning mode. The ion reaction for the quantitative analysis was the following: m/z was 305.2\150.0 for XX, and 256.1\167.1 for diphenhydramine (the internal standard).
Four male SD rats were taken. The dosage was calculated as 5 mL/kg body weight and 2 mg/kg. XX or YY was dissolved in DMSO (3% of a total volume) and castor oil (3% of the total volume) was added to the solution, followed by agitating with a vortex mixer. Subsequently, saline was added to the mixture to the total volume to afford the intravenous injection for the rats. The injections were intravenously administered to four male SD rats. Blood from the rats' orbits was collected 3 min, 8 min, 15 min, 30 min, 1 hr, 2 hr, 3 hr, 4 hr, 6 hr, 9 hr, 12 hr and 24 hr later after the injection, respectively.
After the blood collection, the tubes were immediately gently turned upside down at least five times to ensure sufficient mixing, and placed on ice. Heparin was added for anticoagulation. The samples were centrifuged at 8000 rpm for 5 min to separate serum from erythrocyte. The serum was transferred with a pipettor to 2 mL polypropylene (PP) tubes, which were marked with the name of the compound and the time points, and stored in a refrigerator at −40° C. before LC-MS analysis. Samples with high concentrations were diluted with rat blank plasma.
2.5 μL of Meth-H2O and 5 μL of the internal standard solution (20 ng/mL, IS) were added to 50 μL of the plasma. Subsequently, 150 μL of methanol was added to the mixture to precipitate protein and the samples were then centrifuged at 13000 rpm for 5 min. The upper organic phase was taken out, filtrated with a 0.22 μM microporous membrane, and 2 μL of the sample was injected for the LC-MS analysis.

[2] = rats, iv 2 mg/kg, individual rats, 2 mg/kg

- Concentrations in Plasma of Rats after Intravenous Injection ([1]; 0.05 h after administration, individual rats): 123.2 ng/mL and 127.2 ng/mL
- Concentrations in Plasma of Rats after Intravenous Injection ([1]; 0.133 h, individual rats): 89 ng/mL and 85.9 ng/mL
- Concentrations in Plasma of Rats after Intravenous Injection ([1]; 0.25 h, individual rats): 78.8 ng/mL and 77.3 ng/mL
- Concentrations in Plasma of Rats after Intravenous Injection ([1]; 0.5 h, individual rats): 76.9 ng/mL and 71.3 ng/mL
- Concentrations in Plasma of Rats after Intravenous Injection ([1]; 1 h, individual rats): 73.3 ng/mL and 68.6 ng/mL
- Concentrations in Plasma of Rats after Intravenous Injection ([1]; 2 h, individual rats): 69.5 ng/mL and 68.1 ng/mL
- Concentrations in Plasma of Rats after Intravenous Injection ([1]; 3 h, individual rats): 53.4 ng/mL and 49.8 ng/mL
- Concentrations in Plasma of Rats after Intravenous Injection ([1]; 4 h, individual rats): 38.5 ng/mL and 27.6 ng/mL
- Concentrations in Plasma of Rats after Intravenous Injection ([1]; 6 h, individual rats): 28.4 ng/mL and 25.8 ng/mL
- Concentrations in Plasma of Rats after Intravenous Injection ([1]; 9 h, individual rats): 16.1 ng/mL and 18.6 ng/mL
- Concentrations in Plasma of Rats after Intravenous Injection ([1]; 12 h, individual rats): 7.86 ng/mL and 7.50 ng/mL
- Concentrations in Plasma of Rats after Intravenous Injection ([1]; 24 h, individual rats): 2.57 ng/mL and 2.89 ng/mL
- concentration at 0.05 h ([1]; male, SD, rat, plasma, 2 mg/kg, 0.05 h, mean, read-out: Concentrations in Plasma of Rats after Intravenous Injection, Mean ± SD): 214 ± 38.9 ng/mL
- concentration at 0.05 h ([1]; male, SD, rat, plasma, 2 mg/kg, 0.05 h after administration, individual rats, read-out: Concentrations in Plasma of Rats after Intravenous Injection): 134 ng/mL
- concentration at 0.133 h ([1]; male, SD, rat, plasma, 2 mg/kg, 0.133 h, individual rats, read-out: Concentrations in Plasma of Rats after Intravenous Injection): 86.5 ng/mL
- concentration at 0.133 h ([1]; male, SD, rat, plasma, 2 mg/kg, 0.133 h, mean, read-out: Concentrations in Plasma of Rats after Intravenous Injection, Mean ± SD): 170 ± 7.8 ng/mL
- concentration at 4 h ([1]; male, SD, rat, plasma, 2 mg/kg, 4 h, individual rats, read-out: Concentrations in Plasma of Rats after Intravenous Injection): 27.2 ng/mL
- concentration at 4 h ([1]; male, SD, rat, plasma, 2 mg/kg, 4 h, mean, read-out: Concentrations in Plasma of Rats after Intravenous Injection, Mean ± SD): 40.9 ± 3.4 ng/mL
- concentration at 6 h ([1]; male, SD, rat, plasma, 2 mg/kg, 6 h, individual rats, read-out: Concentrations in Plasma of Rats after Intravenous Injection): 25.8 ng/mL
- concentration at 6 h ([1]; male, SD, rat, plasma, 2 mg/kg, 6 h, mean, read-out: Concentrations in Plasma of Rats after Intravenous Injection, Mean ± SD): 33.1 ± 3.43 ng/mL
- concentration at 9 h ([1]; male, SD, rat, plasma, 2 mg/kg, 9 h, individual rats, read-out: Concentrations in Plasma of Rats after Intravenous Injection): 14.9 ng/mL
- concentration at 9 h ([1]; male, SD, rat, plasma, 2 mg/kg, 9 h, mean, read-out: Concentrations in Plasma of Rats after Intravenous Injection, Mean ± SD): 19.5 ± 1.49 ng/mL
- concentration at 12 h ([1]; male, SD, rat, plasma, 2 mg/kg, 12 h, individual rats, read-out: Concentrations in Plasma of Rats after Intravenous Injection): 8.44 ng/mL
- concentration at 12 h ([1]; male, SD, rat, plasma, 2 mg/kg, 12 h, mean, read-out: Concentrations in Plasma of Rats after Intravenous Injection, Mean ± SD): 7.85 ± 0.62 ng/mL
- concentration at 24 h ([1]; male, SD, rat, plasma, 2 mg/kg, 24 h, individual rats, read-out: Concentrations in Plasma of Rats after Intravenous Injection): 3.38 ng/mL
- concentration at 24 h ([1]; male, SD, rat, plasma, 2 mg/kg, 24 h, mean, read-out: Concentrations in Plasma of Rats after Intravenous Injection, Mean ± SD): 4.07 ± 0.05 ng/mL
- AUC(0-inf) ([1]; male, SD, rat, plasma, iv, 2 mg/kg, rats, iv 2 mg/kg, XX n = 4, YY n = 3, read-out: AUC0-∞, Mean ± SD): 654 ± 23.9 ng·h/mL
- Cmax ([1]; male, SD, rat, plasma, iv, 2 mg/kg, rats, iv 2 mg/kg, XX n = 4, YY n = 3, read-out: Cmax, Mean ± SD): 214 ± 38.9 ng/mL
- MRT inf ([1]; male, SD, rat, plasma, iv, 2 mg/kg, rats, iv 2 mg/kg, XX n = 4, YY n = 3, read-out: MRT0-∞, Mean ± SD): 6.42 ± 0.19 h
- Vd ([1]; male, SD, rat, plasma, iv, 2 mg/kg, rats, iv 2 mg/kg, XX n = 4, YY n = 3, read-out: Vz, Mean ± SD): 26.6 ± 0.52 L/kg
- half-life ([1]; male, SD, rat, plasma, iv, 2 mg/kg, rats, iv 2 mg/kg, XX n = 4, YY n = 3, read-out: t1/2, Mean ± SD (converted)): 6.03 ± 0.27 h
- AUC(0-t) ([1]; male, SD, rat, plasma, iv, 2 mg/kg, rats, iv 2 mg/kg, individual rats 1-3 (Table 11), read-out: AUC0-t): 594 ng·h/mL
- AUC(0-inf) ([1]; male, SD, rat, plasma, iv, 2 mg/kg, rats, iv 2 mg/kg, individual rats, read-out: AUC0-∞): 628 ng·h/mL
- Cmax ([1]; male, SD, rat, plasma, iv, 2 mg/kg, rats, iv 2 mg/kg, individual rats, read-out: Cmax): 225 ng/mL
- MRT inf ([1]; male, SD, rat, plasma, iv, 2 mg/kg, rats, iv 2 mg/kg, individual rats, read-out: MRT0-∞): 6.56 h
- Vd ([1]; male, SD, rat, plasma, iv, 2 mg/kg, rats, iv 2 mg/kg, individual rats, read-out: Vz): 26.3 L/kg
- half-life ([1]; male, SD, rat, plasma, iv, 2 mg/kg, rats, iv 2 mg/kg, individual rats, read-out: t1/2 (converted)): 5.72 h
- AUC(0-t) ([1]; male, SD, rat, plasma, iv, 2 mg/kg, rats, iv 2 mg/kg, n = 3 (Table 11), read-out: AUC0-t, Mean ± SD): 619 ± 22.2 ng·h/mL
- concentration at 0.25 h ([1]; male, rat, plasma, 2 mg/kg, 0.25 h, individual rats, read-out: Concentrations in Plasma of Rats after Intravenous Injection): 78.1 ng/mL
- concentration at 0.25 h ([1]; male, rat, plasma, 2 mg/kg, 0.25 h, mean, read-out: Concentrations in Plasma of Rats after Intravenous Injection, Mean ± SD): 137 ± 6.05 ng/mL
- concentration at 0.5 h ([1]; male, rat, plasma, 2 mg/kg, 0.5 h, individual rats, read-out: Concentrations in Plasma of Rats after Intravenous Injection): 76.6 ng/mL
- concentration at 0.5 h ([1]; male, rat, plasma, 2 mg/kg, 0.5 h, mean, read-out: Concentrations in Plasma of Rats after Intravenous Injection, Mean ± SD): 124 ± 13 ng/mL
- concentration at 1 h ([1]; male, rat, plasma, 2 mg/kg, 1 h, individual rats, read-out: Concentrations in Plasma of Rats after Intravenous Injection): 72.2 ng/mL
- concentration at 1 h ([1]; male, rat, plasma, 2 mg/kg, 1 h, mean, read-out: Concentrations in Plasma of Rats after Intravenous Injection, Mean ± SD): 94.2 ± 6.06 ng/mL
- concentration at 2 h ([1]; male, rat, plasma, 2 mg/kg, 2 h, individual rats, read-out: Concentrations in Plasma of Rats after Intravenous Injection): 60.7 ng/mL
- concentration at 2 h ([1]; male, rat, plasma, 2 mg/kg, 2 h, mean, read-out: Concentrations in Plasma of Rats after Intravenous Injection, Mean ± SD): 86.4 ± 16.8 ng/mL
- concentration at 3 h ([1]; male, rat, plasma, 2 mg/kg, 3 h, individual rats, read-out: Concentrations in Plasma of Rats after Intravenous Injection): 49.6 ng/mL
- concentration at 3 h ([1]; male, rat, plasma, 2 mg/kg, 3 h, mean, read-out: Concentrations in Plasma of Rats after Intravenous Injection, Mean ± SD): 67 ± 10.2 ng/mL
- CL, Mean ± SD ([1]; rats, iv 2 mg/kg, XX n = 4, YY n = 3): 3.06 ± 0.11 L/h/k
- AUC(0-t) ([1]; rats, iv 2 mg/kg, individual rats 1-3 (Table 11), 2 mg/kg): 637.9 ng·h/mL and 624.3 ng·h/mL
- AUC0-∞ [1, 2]: 674.6 ng·h/mL and 660.5 ng·h/mL
- CL [1, 2]: 3.19 L/h/k and 2.97 L/h/k and 3.03 L/h/k
- Cmax [1, 2]: 246.0 ng/mL and 170.6 ng/mL
- MRT0-∞ [1, 2]: 6.20 h and 6.50 h
- Vz [1, 2]: 27.2 L/kg
- t1/2 [1, 2]: 6.15 h and 6.22 h
Structure (SMILES): Cc1ccc(Sc2ccccc2N2CCNCC2)c(C)c1 [YY, 1-[2-(2,4-dimethyl-phenylsulfanyl)-phenyl]piperazine]
- effect on length of time that the tail-suspended mice stopped moving vs blank control (Male ICR mice; 3 mg/kg gavage, two successive weeks): did not shorten
- Duration without Move within 6 min (Male ICR mice; mice tail suspension, gavage 14 days, 3 mg/kg, n = 10, x ± s): 284.9 ± 51.2 s

Reference: patent US9896423B2, “Deuterium substituted 1-[2-(2,4-dimethyl-phenylsulfanyl)-phenyl]piperazine compound or derivatives thereof, and pharmaceutical composition and use thereof” (Jiangsu Jibeier Pharmaceutical Co. Ltd., priority 2014, dated 2018)
